pIC50: −log10 of the molar value. Converted amounts (≈) assume the structure as drawn. Where two headings read alike, the source gives them in different places.
Assays:
[1] = system: MKN-45 (human gastric carcinoma cell); experiment: In vitro anti-tumor cellular activity (MTT), MKN-45; format: cell-based; details: MTT, 72 hours, MKN-45; for IC50: Homo sapiens, read-out: MKN-45 IC50
[2] = system: HT-29 (colon cancer cell); experiment: In vitro anti-tumor cellular activity (MTT), HT-29; format: cell-based, human; details: for IC50: Homo sapiens, read-out: HT-29 IC50
[3] = system: SMMC-7721 (hepatoma cell); experiment: In vitro anti-tumor cellular activity (MTT), SMMC-7721; format: cell-based, human; details: for IC50: Homo sapiens, read-out: SMMC-7721 IC50
[4] = system: H460 (human lung cancer cell); experiment: In vitro anti-tumor cellular activity (MTT), H460; format: cell-based; details: for IC50: Homo sapiens, read-out: H460 IC50
[5] = biological target: T1, c-Met (His-tagged recombinant human Met (Amino acids 974-ends)) (Homo sapiens, UniProt P08581); experiment: c-Met kinase assay (ELISA); format: biochemical; details: 50 pM c-Met, 5 μM ATP, 20 min
T1 construct: His-tagged recombinant human Met (Amino acids 974-ends); His; host or cells: baculovirus expression
T1 sequence (P08581 974-1390 limits assumed): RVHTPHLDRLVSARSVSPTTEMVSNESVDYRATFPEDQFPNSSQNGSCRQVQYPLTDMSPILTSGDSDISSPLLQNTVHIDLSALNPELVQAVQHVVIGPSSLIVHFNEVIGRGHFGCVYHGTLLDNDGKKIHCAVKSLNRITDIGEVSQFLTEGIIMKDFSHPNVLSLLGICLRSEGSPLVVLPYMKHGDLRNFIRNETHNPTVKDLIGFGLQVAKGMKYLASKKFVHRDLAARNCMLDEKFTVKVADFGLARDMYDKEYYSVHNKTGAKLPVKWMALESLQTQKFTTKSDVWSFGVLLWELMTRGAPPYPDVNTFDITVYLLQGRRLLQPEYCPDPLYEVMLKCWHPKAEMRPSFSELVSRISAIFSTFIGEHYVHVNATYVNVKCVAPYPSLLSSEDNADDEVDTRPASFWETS
Protocol: c-Met kinase activity was measured with an ELISA reader.
The reaction mixture was removed by washing with 0.2 μg/mL conjugated horseradish peroxidase (HRP) monoclonal antibody specific for phosphotyrosine (PY20) detecting phosphorylation of the substrate polymer. 1M phosphoric acid was added to terminate the color, the chromogenic substrate (TMB) was tested by spectrophotometry at 450 nm.

[6] = system: U87MG (Human malignant glioblastoma cells); experiment: In vitro anti-tumor cellular activity (MTT), U87MG; format: cell-based; details: for IC50: Homo sapiens, U-87 MG, read-out: U87MG IC50

IC50 ([2]; MTT, 72 hours, HT-29) [µg/mL]	IC50 ([3]; MTT, 72 hours, SMMC-7721) [µg/mL]	IC50 ([4]; NCI-H460, MTT, 72 hours, H460) [µg/mL]	pIC50 [5]	IC50 ([6]; MTT, 72 hours, U87MG) [µg/mL]	Compound	MKN-45 IC50 [1] [µg/mL]	HT-29 IC50 ([2]; MTT, 72 hours, HT-29) [µg/mL]	SMMC-7721 IC50 ([3]; MTT, 72 hours, SMMC-7721) [µg/mL]	H460 IC50 ([4]; MTT, 72 hours, H460) [µg/mL]	U87MG IC50 ([6]; MTT, 72 hours, U87MG) [µg/mL]	further results
0.18	0.57	0.04	7.20	0.18	COc1cc2c(Oc3ccc(NC(=O)c4nn(-c5ccccc5C(F)(F)F)c5ccccc5c4=O)cc3F)ccnc2cc1OCCCN1CCCC1.Cl.Cl [Example 1, N-(3-fluoro-4-((6-methoxy-7-(3-(pyrrolidin-1-yl)propoxy)quinolin-4-yl)oxy)phenyl)-1-(2-(trifluoromethyl)phenyl)-4-oxo-1,4-dihydrocinnoline-3-carboxamide dihydrochloride]						IC50 [1]: 0.27 µg/mL
0.38 (≈ 0.535 µM)	0.63 (≈ 0.888 µM)	0.06 (≈ 0.0845 µM)	7.37	3.5 (≈ 4.93 µM)	COc1cc2c(Oc3ccc(NC(=O)c4nn(-c5ccc(F)c(F)c5)c5ccccc5c4=O)cc3F)ccnc2cc1OCCCN1CCCCC1 [Example 11, N-(3-fluoro-4-((6-methoxy-7-(3-(piperidin-1-yl)propoxy)quinolin-4-yl)oxy)phenyl)-1-(3,4-difluorophenyl)-4-oxo-1,4-dihydrocinnoline-3-carboxamide]						IC50 [1]: 0.12 µg/mL (≈ 0.169 µM)
0.54 (≈ 0.687 µM)	1.6 (≈ 2.04 µM)	2.2 (≈ 2.8 µM)	5.82	1.2 (≈ 1.53 µM)	COc1cc2c(Oc3ccc(NC(=O)c4nn(-c5ccc(F)cc5Br)c5ccccc5c4=O)cc3F)ccnc2cc1OCCCN1CCN(C)CC1 [Example 19, N-(3-fluoro-4-((6-methoxy-7-(3-(4-methylpiperazin-1-yl)propoxy)quinolin-4-yl)oxy)phenyl)-1-(2-bromo-4-fluorophenyl)-4-oxo-1,4-dihydrocinnoline-3-carboxamide]						IC50 [1]: 0.86 µg/mL (≈ 1.09 µM)
0.7 (≈ 0.902 µM)	0.5 (≈ 0.644 µM)	1.1 (≈ 1.42 µM)	5.71	1.3 (≈ 1.67 µM)	COc1cc2c(Oc3ccc(NC(=O)c4nn(-c5cc(C(F)(F)F)ccc5Cl)c5ccccc5c4=O)cc3F)ccnc2cc1OCCCN1CCCCC1 [Example 20, N-(3-fluoro-4-((6-methoxy-7-(3-(piperidin-1-yl)propoxy)quinolin-4-yl)oxy)phenyl)-1-(2-chloro-5-(trifluoromethyl)phenyl)-4-oxo-1,4-dihydrocinnoline-3-carboxamide]						IC50 [1]: 1.6 µg/mL (≈ 2.06 µM)
			5.68		COc1cc2c(Oc3ccc(NC(=O)c4nn(-c5ccccc5F)c5ccccc5c4=O)cc3F)ccnc2cc1OCCCN1CCCC1 [Example 41, N-(3-fluoro-4-((6-methoxy-7-(3-(pyrrolidin-1-yl)propoxy)quinolin-4-yl)oxy)phenyl)-1-(2-fluorophenyl)-4-oxo-1,4-dihydrocinnoline-3-carboxamide]						
1.5 (≈ 2.12 µM)	1.6 (≈ 2.26 µM)	2.7 (≈ 3.82 µM)	5.85	2.1 (≈ 2.97 µM)	COc1cc2c(Oc3ccc(NC(=O)c4nn(-c5ccc(F)cc5)c5ccccc5c4=O)cc3F)ccnc2cc1OCCCN1CCN(C)CC1 [Example 42, N-(3-fluoro-4-((6-methoxy-7-(3-(4-methylpiperazin-1-yl)propoxy)quinolin-4-yl)oxy)phenyl)-1-(4-fluorophenyl)-4-oxo-1,4-dihydrocinnoline-3-carboxamide]						
			6.39		COc1cc2c(Oc3ccc(NC(=O)c4cn(-c5ccc(F)c(F)c5)c5ccccc5c4=O)cc3F)ccnc2cc1OCCCN1CCCCC1 [Example 60, N-(3-fluoro-4-((6-methoxy-7-(3-(piperidin-1-yl)propoxy)quinolin-4-yl)oxy)phenyl)-1-(3,4-difluorophenyl)-4-oxo-1,4-dihydroquinoline-3-carboxamide]						
1.3 (≈ 1.92 µM)	0.9 (≈ 1.33 µM)	1.6 (≈ 2.36 µM)	5.93	1.8 (≈ 2.65 µM)	COc1cc2c(Oc3ccc(NC(=O)c4nn(-c5ccccc5F)c5ccccc5c4=O)cc3F)cnnc2cc1OCCCN1CCCC1 [Example 63, N-(3-fluoro-4-((6-methoxy-7-(3-(pyrrolidin-1-yl)propoxy)cinnolin-4-yl)oxy)phenyl)-1-(2-fluorophenyl)-4-oxo-1,4-dihydrocinnoline-3-carboxamide]						
			6.04		COc1cc2c(Oc3ccc(NC(=O)c4nn(-c5ccc(Br)cc5)c5ccccc5c4=O)cc3F)cnnc2cc1OCCCN1CCCCC1 [Example 65, N-(3-fluoro-4-((6-methoxy-7-(3-(piperidin-1-yl)propoxy)cinnolin-4-yl)oxy)phenyl)-1-(4-bromophenyl)-4-oxo-1,4-dihydrocinnoline-3-carboxamide]						
					N-(3-fluoro-4-((6-methoxy-7-(3-(4-methylpiperazin-1-yl)propoxy)quinolin-4-yl)oxy)phenyl)-1-(4-bromophenyl)-4-oxo-1,4-dihydrocinnoline-3-carboxamide [Example 40]						c-Met IC50 [5]: 0.9 µg/mL
					N-(3-fluoro-4-((6-methoxy-7-(3-(4-methylpiperidin-1-yl)propoxy)quinolin-4-yl)oxy)phenyl)-1-(4-fluorophenyl)-4-oxo-1,4-dihydrocinnoline-3-carboxamide [Example 13]	0.23	0.18	0.67	0.081	0.45	
					N-(3-fluoro-4-((6-methoxy-7-(3-(morpholin-4-yl)propoxy)quinolin-4-yl)oxy)phenyl)-1-(2-f luorophenyl)-4-oxo-1,4-dihydrocinnoline-3-carboxamide [Example 45]	1.6	0.87	2.3	1	2.1	
					N-(3-fluoro-4-((6-methoxy-7-(3-(piperidin-1-yl)propoxy)quinolin-4-yl)oxy)phenyl)-1-(2-(tr ifluoromethyl)phenyl)-4-oxo-1,4-dihydrocinnoline-3-carboxamide dihydrochloride [Example 5]	0.2	0.42	0.25	0.77	1.2	
					N-(3-fluoro-4-((6-methoxy-7-(3-(piperidin-1-yl)propoxy)quinolin-4-yl)oxy)phenyl)-1-(2-ch lorophenyl)-4-oxo-1,4-dihydrocinnoline-3-carboxamide dihydrochloride [Example 2]	0.007	0.19	0.3	0.052	0.35	
					N-(3-fluoro-4-((6-methoxy-7-(3-(pyrrolidin-1-yl)propoxy)quinolin-4-yl)oxy)phenyl)-1-(3,4-difluorophenyl)-4-oxo-1,4-dihydrocinnoline-3-carboxamide [Example 12]	1.2	0.41	0.67	0.91	0.55	

Compound	IC50 ([2]; MTT, 72 hours, HT-29) [µg/mL]	IC50 ([3]; MTT, 72 hours, SMMC-7721) [µg/mL]	IC50 ([4]; NCI-H460, MTT, 72 hours, H460) [µg/mL]	pIC50 [5]	IC50 ([6]; MTT, 72 hours, U87MG) [µg/mL]	MKN-45 IC50 [1] [µg/mL]	HT-29 IC50 ([2]; MTT, 72 hours, HT-29) [µg/mL]	SMMC-7721 IC50 ([3]; MTT, 72 hours, SMMC-7721) [µg/mL]	H460 IC50 ([4]; MTT, 72 hours, H460) [µg/mL]	U87MG IC50 ([6]; MTT, 72 hours, U87MG) [µg/mL]	further results
COc1cc2c(Oc3ccc(NC(=O)c4nn(-c5ccc(Cl)cc5Cl)c5ccccc5c4=O)cc3F)cnnc2cc1OCCCN1CCCC1 [Example 70, N-(3-fluoro-4-((6-methoxy-7-(3-(pyrrolidin-1-yl)propoxy)cinnolin-4-yl)oxy)phenyl)-1-(2,4-dichlorophenyl)-4-oxo-1,4-dihydrocinnoline-3-carboxamide]				6.02							IC50 ([2]; HT-29, 72 h): 3.2 µg/mL (≈ 4.39 µM); IC50 ([3]; SMMC-7721, 72 h): 1.8 µg/mL (≈ 2.47 µM); IC50 ([4]; NCI-H460, 72 h): 2.6 µg/mL (≈ 3.56 µM); IC50 ([6]; 72 h): 2.1 µg/mL (≈ 2.88 µM)
